The values below come from PMC9583845, “Characterization of the chicken melanocortin 5 receptor and its potential role in regulating hepatic glucolipid metabolism” (Frontiers in Physiology, 2022).

Where only a bound is given, the exact number is not on record here.

Experiment [1] deals with 7-day chickens. The note with it: continuous administration through mini-osmotic pumps, ref Puvadolpirod and Thaxton, 2000a; cited from earlier work. From the text: Early studies have tested the effect of continuous ACTH administration in 7-day chickens ([Puvadolpirod and Thaxton, 2000a]; [Puvadolpirod and Thaxton, 2000b]; [Puvadolpirod and Thaxton, 2000c]; [Puvadolpirod and Thaxton, 2000d]; [Thaxton and Puvadolpirod, 2000]). […] A series of effects of ACT ...

Experiment [2] deals with THRSPA mRNA, primary chicken hepatocytes. Briefly: THRSPA mRNA in primary chicken hepatocytes, RT-qPCR. The format is cell-based. The note with it: 6 h, N = 4, Figures 8D-F. The method, then:
(§1) To evaluate the effect of ACTH1-39 on chicken liver, the chicken hepatocytes were prepared and maintained as a monolayer culture. Briefly, one-month-old male chicken hepatocytes were isolated by perfusion of a liver with Ca^2+-free KRB buffer to remove blood cells, and being digested with 0.25% collagenase-I for 10 min. Hepatocytes were obtained following filtering and washing using M199 medium. Then the hepatocytes were plated in a Corning CellBIND 48-well microplate (Corning, NY, cat. no.3338) with M199 medium containing 100 U/ml penicillin and […] streptomycin (Gibco), 5 μg/ml bovine insulin (Sigma), and 5% FBS at 37°C in a 5% CO2 atmosphere. To adhere to the wall, the cells were incubated on the 48-well plate for 4 h.
(§2) For quantitative real-time PCR, primary cultured chicken hepatocytes were treated with various concentrations of ACTH1-39 (or other composition) at 37°C for 6 h. The relative amount of mRNA was calculated using the comparative Ct method. Chicken β-actin gene was used as the reference gene. Amplification of specific transcripts was confirmed by analyzing the melting curve profile performed at the end of each run and by determining the size of the PCR products using agarose electrophoresis and ethidium bromide staining.

Experiment [3] concerns ELOVL6 mRNA, primary chicken hepatocytes. Description: ELOVL6 mRNA in primary chicken hepatocytes, RT-qPCR. The following applies: 6 h, N = 4, Figures 8A-C. The format is cell-based. On the procedure: as §1, §2
(In qPCR the cycle at which signal appears reflects the starting amount.)

Experiment [4] has as its system chicken MC1R. On the set-up: method as in Ling et al., 2003; Ling et al., 2004; Mundy, 2005. The following applies: ref Ling et al., 2003, 2004, Mundy, 2005; cited from earlier work.
Experiment [5] has as its target chicken MC5R + MRAP2 (Gallus gallus, UniProt O73671). Briefly: pGL3-CRE-luciferase reporter assay, CHO cells co-expressing MC5R and cMRAP2. The experiment is classed as cell-based. The note with it: for effect of MRAP2 co-expression on sensitivity of MC5R: vs MC5R expressed alone. On the procedure:
(§3) The expression plasmids encoding MC5R, MRAP1 and MRAP2 were established by cloning their entire open reading frame (ORF) into the pcDNA3.1 (+) expression vector (Invitrogen).
(§4) The cells were then transfected with a mixture containing 700 ng pGL3-CRE-Luciferase reporter construct, 200 ng of receptor expression plasmid (or empty pcDNA3.1 vector as a negative control), 20 ng of pRL-TK construct (containing a Renilla luciferase gene, used as an internal control), and 2 μl jetPRIME transfection reagent (Polyplus Transfection, Illkirch, France) in 200 μL buffer. […] After removal of the medium from the 96-well plate, the cells were treated with 100 μl ligand-containing medium (or ligand-free medium) for 6 h. Finally, CHO cells were lysed with 1 × passive lysis buffer for luciferase assay (Promega) and the luciferase activity of the cell lysate was measured by a Multimode Microplate Reader (TriStar LB941, EG&G Berthold, Germany) according to the manufacturer’s instruction.
(§5) All statistical analysis was performed using GraphPad Prism 9 (Graph Pad Software Inc., San Diego, CA). The dose-response curves were constructed using nonlinear regression models. Student’s test was used to compare two groups, for more than two groups one-way ANOVA was performed followed by Dunnett’s test. To validate our results, all in-vitro experiments were repeated three times, and representative data are reported.

The target in experiment [6] is chicken MC5R (Gallus gallus, UniProt O73671). Briefly: pGL3-CRE-luciferase reporter assay, CHO cells expressing chicken MC5R. The format is cell-based. The following applies: for ability to activate / sensitivity of cMC5R (in words, ranking): CHO cells expressing cMC5R.
Text: All chemicals were purchased from Sigma-Aldrich (St. Louis, MO, United States) and the restriction enzymes were obtained from TaKaRa (Dalian, China). […] All primers used in this study were synthesized by Beijing Genome Institute (BGI, China) and listed in Supplementary Table 1.
as §3, §4, §5

Experiment [7] deals with chicken MC3R. More on the design: method as in Zhang et al., 2017; Thomas et al., 2018. The note with it: ref Zhang et al., 2017; Thomas et al., 2018; cited from earlier work.
Experiment [8] has as its system SCD mRNA, primary chicken hepatocytes. Description: SCD mRNA in primary chicken hepatocytes, RT-qPCR. The format is cell-based. The note with it: 0.1–100 nM, 6 h, N = 4, Figure 8I, listed as not decreased. On the procedure: as §1, §2
Experiment [9] relates to FASN mRNA, primary chicken hepatocytes. Description: FASN mRNA in primary chicken hepatocytes, RT-qPCR. The format is cell-based. The note with it: 0.1–100 nM, 6 h, N = 4, Figure 8H, listed as not decreased. The method, then: as §1, §2
Experiment [10] deals with primary chicken hepatocytes. Briefly: Lipid quantification by Oil Red O staining, primary cultured chicken hepatocytes. The format is cell-based. The note with it: 24 h; OD at 540 nm of isopropanol extract; N = 6; Figures 7C–D. The method, then: as §1
For lipid quantification by Oil Red O staining, after treatment with ACTH1-39 for 24 h, primary cultured chicken hepatocytes were washed with PBS and then fixed with 4% paraformaldehyde for 30 min. After PBS washing, the Oil Red O working solution was added to stain for 30 min. The stained lipids were then visualized by light microscopy after washing in PBS. To quantify the lipid content, the Oil Red O stained in the cells was extracted with isopropanol by measuring the OD value at 540 nm.

The subject of experiment [11] is primary chicken hepatocytes. Description: Glucose production from primary cultured chicken hepatocytes. The experiment is classed as cell-based. The following applies: for glucose production (in words): primary chicken hepatocytes, 100 nM for 30 or 60 min, or 0.1–100 nM for 60 min, gluconeogenic substrates 20 mM lactate, 2 mM pyruvate, four independent experiments, Figures 7A,B. The method, then:
as §1
Glucose production from primary cultured chicken hepatocytes was measured as previously described ([Collins et al., 2006]). Briefly, cells were washed three times with warm phosphate-buffered saline (PBS) to remove glucose, followed by treatment with 100 nM (or different concentration gradients) chicken ATCH1-39 for 30 min or 60 min in glucose-free medium containing gluconeogenic substrates (20 mM sodium lactate and 2 mM sodium pyruvate). Glucose concentration was determined with a glucose assay kit (Applygen, Beijing, China, catalog no. E1011). Briefly, the 5 µl medium was added into 195 µl reagent and incubated for 20 min at 37°C. Absorbance in 550 nm was measured in a standard glucose solution.

The subject of experiment [12] is ACACA mRNA, primary chicken hepatocytes. Description: ACACA mRNA in primary chicken hepatocytes, RT-qPCR. The note with it: 0.1–100 nM, 6 h, N = 4, Figure 8G, listed as not decreased. The format is cell-based. The method, then: as §1, §2

Chain of chicken MC5R (O73671 1-325): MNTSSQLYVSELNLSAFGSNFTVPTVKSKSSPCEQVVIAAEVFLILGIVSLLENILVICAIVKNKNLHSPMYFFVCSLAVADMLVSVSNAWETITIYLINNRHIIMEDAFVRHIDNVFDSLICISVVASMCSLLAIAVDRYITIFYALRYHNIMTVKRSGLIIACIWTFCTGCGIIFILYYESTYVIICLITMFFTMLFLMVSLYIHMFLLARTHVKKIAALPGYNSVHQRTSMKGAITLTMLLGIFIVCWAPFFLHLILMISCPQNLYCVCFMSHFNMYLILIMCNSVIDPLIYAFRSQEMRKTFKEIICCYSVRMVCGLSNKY
Chain of chicken MC5R + MRAP2 (O73671 1-325): as above
Chain of chicken MC5R + MRAP2 (A0A140B2F4 1-206 partner): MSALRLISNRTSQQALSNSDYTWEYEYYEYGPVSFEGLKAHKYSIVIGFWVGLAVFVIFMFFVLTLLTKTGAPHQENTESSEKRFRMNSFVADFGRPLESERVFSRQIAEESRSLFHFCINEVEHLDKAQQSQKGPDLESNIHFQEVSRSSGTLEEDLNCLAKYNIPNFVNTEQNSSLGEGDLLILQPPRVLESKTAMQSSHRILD

On to “H-SYSMEHFRWGKPVGRKRRPIKVYPNGVDEESAESYPMEF-OH [ACTH1-39]”, for which the plasma corticosterone result in experiment [1] is “a fast rise in plasma corticosterone”. Also, the “plasma glucose and relative liver weight” value in experiment [1] was “an increase in plasma glucose and relative liver weight”. Besides, in experiment [2], the “THRSPA mRNA expression” value is recorded as “dose-dependently decreased”. In addition, in [3], the “ELOVL6 mRNA expression” value is “dose-dependently decreased”. Moreover, the MC1R response entry in experiment [4] is “promoting intracellular cAMP accumulation”. In addition, the EC50 (commonly the concentration that produces a half-maximal response) in [5] (Table 1 / Figure 3, co-expressed with cMRAP2, 6 h, pGL3-CRE-luciferase, mean ± SEM of at least three independent experiments (figure: four replicates), ^a: significantly different from the parameter of MC5R, p < 0.01) was 3.19 ± 1.09 nM; in [6] (Table 1 / Figure 3, CHO cells, MC5R alone, 6 h, mean ± SEM of at least three independent experiments (figure: four replicates), read-out: EC50, MC5R expressed alone) it was 5.91 ± 1.18 nM. Besides, the “effect of MRAP2 co-expression on sensitivity of MC5R” value in [5] (α-MSH p < 0.01) is recorded as “did not affect the sensitivity of cMC5R to ACTH1-39”; in experiment [5] (α-MSH p < 0.01, listed as ACTH) it was “no effect on the sensitivity of chicken MC5R for ACTH”. Besides, the “ability to activate / sensitivity of cMC5R (in words, ranking)” value is recorded as “ACTH1-39 ≈ α-MSH > β-MSH > γ-MSH” in experiment [6] and “highest potency to activate cMC5R” in [6] (listed as ACTH). Also, the “activation of chicken MC3R” value in experiment [7] is “activated by both α-MSH and ACTH”. For the same substance, in experiment [8], the “SCD mRNA expression” value is “instead of ACACA, FASN and SCD”. The “FASN mRNA expression” value in experiment [9] was “instead of ACACA, FASN and SCD”. For the same substance, the “lipid contents (Oil Red O staining)” value in experiment [10] is recorded as “lipid contents were lower in the ACTH-treat group in a dose-dependent manner”. Besides, the “time from which glucose production significantly increased” value in experiment [11] (100 nM ACTH, 30 and 60 min, Figure 7A) is recorded as at least 0.5 h. Moreover, the “dose from which glucose production significantly increased” value in experiment [11] (0.1–100 nM ACTH, 60 min, Figure 7B) is on record as at least 1 nM. For the same substance, the “glucose production (in words)” value in [11] is given as “enhanced glucose production”; in [11] (listed as ACTH) it was “induction of gluconeogenesis”; in [11] (listed as cACTH1-39) it was “significantly increased the level of glucose production”. In [12], the “ACACA mRNA expression” value was “instead of ACACA, FASN and SCD”.
